The target in one assay is T1, PIKFYVE (Homo sapiens, UniProt Q9Y2I7).
T1 construct: purchased Eurofins (KINOMEscan); host or cells: E. coli BL21-derived (T7 phage display) or HEK-293
T1 sequence (Q9Y2I7 whole entry): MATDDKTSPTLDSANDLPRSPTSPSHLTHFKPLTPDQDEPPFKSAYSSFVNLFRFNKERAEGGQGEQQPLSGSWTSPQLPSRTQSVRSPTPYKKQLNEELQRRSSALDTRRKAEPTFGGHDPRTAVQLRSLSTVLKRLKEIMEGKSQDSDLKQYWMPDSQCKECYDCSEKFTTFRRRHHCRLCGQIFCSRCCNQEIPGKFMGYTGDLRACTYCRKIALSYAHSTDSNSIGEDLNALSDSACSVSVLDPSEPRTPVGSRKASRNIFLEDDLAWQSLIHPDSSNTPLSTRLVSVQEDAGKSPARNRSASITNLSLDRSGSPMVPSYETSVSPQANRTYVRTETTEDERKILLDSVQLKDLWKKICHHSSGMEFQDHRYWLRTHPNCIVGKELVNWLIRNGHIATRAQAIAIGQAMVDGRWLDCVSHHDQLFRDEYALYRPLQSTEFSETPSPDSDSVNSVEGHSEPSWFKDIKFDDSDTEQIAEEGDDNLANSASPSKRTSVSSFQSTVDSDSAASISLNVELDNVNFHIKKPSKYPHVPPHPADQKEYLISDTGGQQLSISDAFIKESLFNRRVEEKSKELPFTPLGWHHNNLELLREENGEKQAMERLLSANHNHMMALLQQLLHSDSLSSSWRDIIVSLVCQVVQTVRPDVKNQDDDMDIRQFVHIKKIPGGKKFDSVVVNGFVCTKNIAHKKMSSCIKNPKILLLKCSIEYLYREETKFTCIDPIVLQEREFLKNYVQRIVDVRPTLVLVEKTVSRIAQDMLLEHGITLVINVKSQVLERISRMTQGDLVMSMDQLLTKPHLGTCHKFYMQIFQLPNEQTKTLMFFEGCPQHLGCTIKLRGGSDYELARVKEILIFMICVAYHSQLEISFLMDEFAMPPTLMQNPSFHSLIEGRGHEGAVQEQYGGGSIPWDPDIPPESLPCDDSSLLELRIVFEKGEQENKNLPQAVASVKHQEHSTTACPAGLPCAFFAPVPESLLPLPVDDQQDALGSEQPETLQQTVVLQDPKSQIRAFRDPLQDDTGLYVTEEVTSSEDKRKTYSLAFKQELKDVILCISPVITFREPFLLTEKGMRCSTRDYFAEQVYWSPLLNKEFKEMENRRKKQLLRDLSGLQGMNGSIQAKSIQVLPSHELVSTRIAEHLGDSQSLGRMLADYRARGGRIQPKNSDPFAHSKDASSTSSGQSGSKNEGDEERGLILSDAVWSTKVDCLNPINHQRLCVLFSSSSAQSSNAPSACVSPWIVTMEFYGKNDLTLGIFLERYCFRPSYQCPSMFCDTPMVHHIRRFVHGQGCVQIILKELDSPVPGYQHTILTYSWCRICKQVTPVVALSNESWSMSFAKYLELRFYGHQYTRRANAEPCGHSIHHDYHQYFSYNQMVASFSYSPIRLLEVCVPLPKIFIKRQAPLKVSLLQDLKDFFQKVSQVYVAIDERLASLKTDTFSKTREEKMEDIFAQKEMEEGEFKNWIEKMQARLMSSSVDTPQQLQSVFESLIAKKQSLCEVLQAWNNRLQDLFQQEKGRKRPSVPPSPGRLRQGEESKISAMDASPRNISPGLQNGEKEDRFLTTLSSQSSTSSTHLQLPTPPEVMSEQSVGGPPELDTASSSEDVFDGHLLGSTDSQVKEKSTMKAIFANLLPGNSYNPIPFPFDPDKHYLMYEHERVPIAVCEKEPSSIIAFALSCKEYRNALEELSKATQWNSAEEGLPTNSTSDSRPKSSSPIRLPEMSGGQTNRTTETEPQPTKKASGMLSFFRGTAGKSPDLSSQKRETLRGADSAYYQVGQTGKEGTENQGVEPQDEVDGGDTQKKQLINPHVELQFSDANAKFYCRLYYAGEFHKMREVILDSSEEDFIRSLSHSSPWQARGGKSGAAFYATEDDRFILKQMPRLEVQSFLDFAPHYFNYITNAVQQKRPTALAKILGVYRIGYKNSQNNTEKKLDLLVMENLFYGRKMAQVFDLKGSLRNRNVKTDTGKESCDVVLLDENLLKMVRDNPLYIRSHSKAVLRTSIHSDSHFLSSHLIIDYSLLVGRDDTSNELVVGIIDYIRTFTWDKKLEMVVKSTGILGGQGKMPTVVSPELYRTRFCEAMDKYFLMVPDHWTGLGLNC
In words: KINOMEscan Kinase Assay (Eurofins), PIKFYVE inhibitory activity. In kind it is binding. The following applies: @ 3 nM.
On to `Cc1cccc(-c2ccn(-c3nc(N4CCOCC4)c4nc(CN5CCOCC5)n(C)c4n3)n2)c1` [Ex. 56, 4-((9-methyl-6-morpholino-2-(3-(m-tolyl)-1H-pyrazol-1-yl)-9H-purin-8-yl)methyl)morpholine], for which the inhibition at 0.003 µM came to 94%.
In turn, `Cc1cccc(-c2ccn(-c3cc(N4CCOCC4)c4sc(CN5CCC(C(C)(C)O)CC5)c(C)c4n3)n2)c1` [Ex. 168, 2-(1-((3-Methyl-7-morpholino-5-(3-(m-tolyl)-1H-pyrazol-1-yl)thieno[3,2-b]pyridin-2-yl)methyl)piperidin-4-yl)propan-2-ol] displayed an inhibition at 0.003 µM of 23%.

Still in this assay, the particulars now being: @ 5 nM.
On to `CO[C@@H](C)c1cccc(-c2ccn(-c3cc(N4CCOCC4)c4sc(CN5CCOCC5)cc4n3)n2)c1` (single isomer, unassigned) [Ex. 212, 4-(5-(3-(3-(1-methoxyethyl)phenyl)-1H-pyrazol-1-yl)-2-(morpholinomethyl)thieno[3,2-b]pyridin-7-yl)morpholine], for which the inhibition at 0.005 µM came out at 0%.
Still for that read-out and setting: the value for `Brc1ccn(-c2cc(N3CCOCC3)c3sc(CN4CCOCC4)cc3n2)n1` [Ex. 173, 4-(5-(3-Bromo-1H-pyrazol-1-yl)-2-(morpholinomethyl)thieno[3,2-b]pyridin-7-yl)morpholine] was 8%.

The same assay, now with this note: @ 30 nM.
`Cc1cccc(-c2ccn(-c3nc(N4CCC(=O)C4)c4sc(CN5CCN(S(C)(=O)=O)CC5)cc4n3)n2)c1` [Ex. 129, 1-(6-((4-(methylsulfonyl)piperazin-1-yl)methyl)-2-(3-(m-tolyl)-1H-pyrazol-1-yl)thieno[3,2-d]pyrimidin-4-yl)pyrrolidin-3-one] had an inhibition at 0.03 µM of 92%.

Still in this assay, the particulars now being: @ 50 nM.
For `CC(=O)N(C)C1CCN(Cc2cc3nc(-n4ccc(-c5cccc(C)c5)n4)nc(N4CCOCC4)c3s2)CC1` [Ex. 7, N-methyl-N-(1-((4-morpholino-2-(3-(m-tolyl)-1H-pyrazol-1-yl)thieno[3,2-d]pyrimidin-6-yl)methyl)piperidin-4-yl)acetamide], the inhibition at 0.05 µM is 100%.
Consider `Cc1cccc(-c2ccn(-c3nc(N4CCOCC4)c4sc(CN5CCC(N(C)S(C)(=O)=O)CC5)cc4n3)n2)c1` [Ex. 6, N-methyl-N-(1-((4-morpholino-2-(3-(m-tolyl)-1H-pyrazol-1-yl)thieno[3,2-d]pyrimidin-6-yl)methyl)piperidin-4-yl)methanesulfonamide], for which the inhibition at 0.05 µM was determined as 100%.

The assay is the same for the next values; noted with them: @ 1000 nM.
The molecule `Cc1cccc(-c2ccn(-c3cc(N4CCOCC4)c4nc(CN5CCC(N6CCOCC6)CC5)[nH]c4n3)n2)c1` [Ex. 42, 4-(1-((7-morpholino-5-(3-(m-tolyl)-1H-pyrazol-1-yl)-3H-imidazo[4,5-b]pyridin-2-yl)methyl)piperidin-4-yl)morpholine] returned an inhibition at 1 µM of 98%.

The same assay, now with this note: KINOMEscan.
In the case of `Cc1cccc(-c2ccn(-c3cc(N4CCOCC4)c4nc(CN5CC[C@H](N(C)C)C5)[nH]c4n3)n2)c1` [Ex. 46, (S)—N,N-dimethyl-1-((7-morpholino-5-(3-(m-tolyl)-1H-pyrazol-1-yl)-3H-imidazo[4,5-b]pyridin-2-yl)methyl)pyrrolidin-3-amine], the IC50 was less than 1 nM.
On the same count and under the same terms, the value for `Cc1cccc(-c2ccn(-c3cc(N4CCOCC4)c4nc(CN5CCN(C)CC5)[nH]c4n3)n2)c1` [Ex. 39, 4-(2-((4-methylpiperazin-1-yl)methyl)-5-(3-(m-tolyl)-1H-pyrazol-1-yl)-3H-imidazo[4,5-b]pyridin-7-yl)morpholine] was less than 1 nM.
On to `Cc1cccc(-c2ccn(-c3nc(N4CCOCC4)c4sc(CN5CCOCC5)cc4n3)n2)c1` [Ex. 29, 4-((4-morpholino-2-(3-(m-tolyl)-1H-pyrazol-1-yl)thieno[3,2-d]pyrimidin-6-yl)methyl)morpholine], for which the IC50 was less than 1 nM.
Consider `COC1(c2sc3c(N4CCOCC4)nc(-n4ccc(-c5cccc(C)c5)n4)nc3c2C)COC1` [Ex. 65, 4-(6-(3-methoxyoxetan-3-yl)-7-methyl-2-(3-(m-tolyl)-1H-pyrazol-1-yl)thieno[3,2-d]pyrimidin-4-yl)morpholine], for which the IC50 fell in the range of 1 to 10 nM.
For `Cc1cccc(-c2ccn(-c3nc(N4CCOCC4)c4sc(CN5CC6C(C5)C6N(C)C)cc4n3)n2)c1` (stereo not shown) [Ex. 20, N,N-dimethyl-3-((4-morpholino-2-(3-(m-tolyl)-1H-pyrazol-1-yl)thieno[3,2-d]pyrimidin-6-yl)methyl)-3-azabicyclo[3.1.0]hexan-6-amine], the IC50 was less than 1 nM.
`Cc1cccc(-c2ccn(-c3nc(N4CCOCC4)c4sc(C(=O)N5CCN(C)CC5)c(C)c4n3)n2)c1` [Ex. 59, (7-methyl-4-morpholino-2-(3-(m-tolyl)-1H-pyrazol-1-yl)thieno[3,2-d]pyrimidin-6-yl)(4-methylpiperazin-1-yl)methanone] registered an IC50 of 1 to 10 nM.
Same read-out and setting: for `Cc1cccc(-c2ccn(-c3nc(N4CCOCC4)c4sc(C(C)N5CCN(S(C)(=O)=O)CC5)cc4n3)n2)c1` (stereo not shown) [Ex. 26, 4-(6-(1-(4-(methylsulfonyl)piperazin-1-yl)ethyl)-2-(3-(m-tolyl)-1H-pyrazol-1-yl)thieno[3,2-d]pyrimidin-4-yl)morpholine] the value was 1 to 10 nM; for `Cc1cccc(-c2ccn(-c3nc(N4CCOCC4)c4nc(CN5CCC(C(C)(C)O)CC5)n(C)c4n3)n2)c1` [Ex. 62, 2-(1-((9-methyl-6-morpholino-2-(3-(m-tolyl)-1H-pyrazol-1-yl)-9H-purin-8-yl)methyl)piperidin-4-yl)propan-2-ol], 1 to 10 nM; for `COc1cccc(-c2ccn(-c3nc(N4CCOCC4)c4sc(CN5CCN(S(C)(=O)=O)CC5)cc4n3)n2)c1` [Ex. 3, 4-(2-(3-(3-methoxyphenyl)-1H-pyrazol-1-yl)-6-((4-(methylsulfonyl)piperazin-1-yl)methyl)thieno[3,2-d]pyrimidin-4-yl)morpholine], 1 to 10 nM.
In turn, `Cc1cccc(-c2ccn(-c3nc(N4CCOCC4)c4nc(CN5CCN(S(C)(=O)=O)CC5)n(C)c4n3)n2)c1` [Ex. 57, 4-(9-methyl-8-((4-(methylsulfonyl)piperazin-1-yl)methyl)-2-(3-(m-tolyl)-1H-pyrazol-1-yl)-9H-purin-6-yl)morpholine] yielded an IC50 of 1 to 10 nM.
The same measure, in the same setting: for `Cc1cccc(-c2ccn(-c3nc(N4CCOCC4)c4nc(CN5CCC(N(C)C)CC5)sc4n3)n2)c1` [Ex. 16, N,N-dimethyl-1-((7-morpholino-5-(3-(m-tolyl)-1H-pyrazol-1-yl)thiazolo[5,4-d]pyrimidin-2-yl)methyl)piperidin-4-amine] the value was less than 1 nM; for `Cc1cccc(-c2ccn(-c3nc(N4CCOCC4)c4sc(CN5CC[C@H](N(C)C)C5)cc4n3)n2)c1` [Ex. 19, (S)—N,N-dimethyl-1-((4-morpholino-2-(3-(m-tolyl)-1H-pyrazol-1-yl)thieno[3,2-d]pyrimidin-6-yl)methyl)pyrrolidin-3-amine], less than 1 nM; for `Cc1cccc(-c2ccn(-c3nc(N4CCOCC4)c4nc(CN5CCOCC5)[nH]c4n3)n2)c1` [Ex. 14, 4-((6-morpholino-2-(3-(m-tolyl)-1H-pyrazol-1-yl)-9H-purin-8-yl)methyl) morpholine], 1 to 10 nM.
`CS(=O)(=O)N1CCN(Cc2cc3nc(-n4ccc(-c5cccc(Br)c5)n4)nc(N4CCOCC4)c3s2)CC1` [Ex. 1, 4-(2-(3-(3-bromophenyl)-1H-pyrazol-1-yl)-6-((4-(methylsulfonyl)piperazin-1-yl)methyl)thieno[3,2-d]pyrimidin-4-yl)morpholine] came in with an IC50 of 1 to 10 nM.

The record behind these values is US20230265103A1 (TME Therapeutics LLC, priority 2021, published 2023).
